Values joined by “and” are separate entries in the source; they are usually repeats but may differ in a detail not shown here. Identical values can stand only once. Like-named read-outs stand apart in the source and are kept apart here. Peptide text beside a SMILES is read from it. * marks the point of attachment. Cbz = O=C(OCc1ccccc1)*; CH2F = FC*
Assays:
[1] = test system: C2 production in SMB cells; test: cells; type: cell-based, mouse; settings: for IC50: read-out: concentration producing 50% inhibition of C2 accumulation (IC50)
[2] = test system: SMB cells
[3] = test system: C1 production in SMB cells; type: cell-based, mouse
[4] = test system: calpain-mediated cleavage of PrP in SMB cells; type: cell-based, mouse
[5] = test system: PrP^Sc accumulation in ScN2a cells; settings: cited from earlier work
[6] = test system: prion replication in SMB cells; settings: mouse, in vivo

CCCC[C@@H](C=O)NC(=O)[C@H](CC(C)C)NC(=O)OCc1ccccc1 [calpeptin, Benzyloxycarbonylleucyl-norleucinal]
reduction in C2 [1]: 71±7.1%
cell toxicity / cell survival [2]: cell toxicity is not triggered

Cbz-Leu-Leu-Tyr-CH2F [calpain inhibitor IV]
effect on production of C2 [1]: apparently complete elimination of C2
IC50 [1]: 450 nM
cell toxicity / cell survival [2]: cell toxicity is not triggered
C1 levels [3]: C1 levels declined
C1 levels higher than control treated SMB cells [3]: ~2 fold

Z-FG-NHO-BzOME [cathepsin inhibitor III]
effect on production of C2 [1]: unaffected

CNc1ccc2oc(C[C@H]3O[C@@]4(CC[C@H]3C)O[C@H]([C@H](C)C(=O)c3ccc[nH]3)[C@H](C)C[C@H]4C)nc2c1C(=O)O [A23187]
increase of C2 [4]: 3.5 fold

CC(=O)N[C@@H](CC(C)C)C(=O)N[C@@H](CC(C)C)C(=O)N[C@H](C=O)CCCNC(=N)N [leupeptin]
PrP^Sc accumulation in ScN2a cells [5]: affected PrP^Sc accumulation

CC(C)[C@H](NC(=O)OCc1ccccc1)C(=O)N[C@H](C=O)Cc1ccccc1 [MDL28170, Carbobenzoxy-valinyl-phenylalaninal] (Cbz-Val-Phe-aldehyde)
prion titers in treated SMB cells [6]: reduced prion titers
C2 by immunoblotting [1]: undetectable
reduction in C2 [1]: 63±19.7% and 75±6.8%
IC50 ([1]; Mus musculus, SMB): ~4000 nM
cell toxicity / cell survival [2]: cell toxicity is not triggered
C1 levels [3]: increased to levels similar to calpain inhibitor IV-treated SMB cells

Z-FY(t-Bu)-DMK [cathepsin L inhibitor III]
effect on production of C2 [1]: unaffected

C[C@H](CCC(=O)O)C[C@H](C)C[C@H](C)C(=O)/C=C(\O)[C@H](C)C[C@H](C)C/C=C/[C@@H](C)[C@@H](O)[C@@H](C)[C@@H](O)C[C@@H]1CC[C@@](C)([C@H]2CC[C@@](C)([C@@H](C)O)O2)O1 [ionomycin]
increase in C2 levels compared to control [4]: ~7 fold

calpastatin
levels of C2 lower than control transfected cells [1]: 64±15%
